Patent US20090175805A1, “Neuraminidase Inhibitors and uses thereof” (priority 2006, published 2009)

Columns and labels:
PAO1 biofilm formation = assay: Biofilm assay, crystal violet staining in 96-well microtiter plates; assay type: cell-based, P. aeruginosa; details: various concentrations of inhibitor, absorbance at 540 nm
Description: An overnight culture of bacteria grown in LB with shaking was diluted 1:100, and 100 μl aliquots added to 96-well microtiter plates incubated for 24-48 hours at 37° C. (O'Toole et al., (2000) J. Bacteriol. 182:425-431; O'Toole et al., (2000) Annu. Rev. Microbiol. 54:49-79). 0.1% crystal violet was added to each well for 15 minutes, rinsed three times with water then released with the addition of 200 μl of 95% ethanol. Absorbance was determined at 540 nm. For experiments with inhibitors, the following modifications in the assay were used: for oseltamivir (Tamiflu) (Roche, Nutley, N.J.), an overnight culture of bacteria was diluted 1:100 in different doses of inhibitor in LB and 100 μl aliquots plated and assayed as above; for peramivir (BioCryst, Birmingham, Ala.), an overnight culture of bacteria was diluted 1:100 in different doses of inhibitor in LB and incubated at room temperature for 48 hours then diluted 1:2 in LB and 100 μl aliquots plated and assayed as above (McKimm-Breschkin et al., (2003) Antimicrob. Agents. Chemother. 47:2264-2272; Sidwell et al., (2002) Expert Opin. Investig. Drugs 11:859-869). Each sample was tested in sextuplicate and the assay was repeated on three separate occasions and representative data shown. A mean and standard deviation were calculated and statistical significance determined using a two-tailed unpaired t test (Graph Pad Instat version 3.0, Graphpad Software, San Diego, Calif.) to test the null hypothesis that there was no difference in the amount of biofilm production under each test condition, as compared to the media alone or untreated control.

[1] = system: PAO1 enzyme (P. aeruginosa PAO1 neuraminidase); assay: Neuraminidase assay with fluorescent substrate 2'-(4-methylumbelliferyl)-α-D-N-acetylneuraminic acid; assay type: biochemical; details: peramivir 0.25 and 2.5 μM; 24-48 hours; fluorescence ex 360 nm / em 465 nm
Description: (§1) The PAO1 enzyme (10 μg/ml) was overexpressed and purified from E. coli using the pET28a vector (Novagen, San Diego, Calif.) and a control V. cholera neuraminidase (0.1 U/ml) (Calbiochem, San Diego, Calif.) were incubated with the fluorescent substrate 2′-(4-methylumbelliferyl)-α-D-N-acetylneuraminic acid (Sigma-Aldrich, St. Louis, Mo.) (25 μM in 0.9% NaCl) with or without peramivir (0.25 and 2.5 μM) for 24-48 hours and fluorescence read at excitation 360 nm and emission 465 nm. Each data point was performed in sextuplicate. A mean and standard deviation were calculated and statistical significance determined using a one-way analysis of variance with Bonferroni's post test (Graph Pad Instat version 3.0, Graphpad Software, San Diego, Calif.) to test the null hypothesis that there was no difference in the amount of fluorescence under each test condition, as compared to the untreated control.

V. cholera neuraminidase = biological target: T1, V. cholera neuraminidase (Vibrio cholerae serotype O1, UniProt P0C6E9); assay: as above; assay type: biochemical; details: peramivir 0.25 and 2.5 μM; 24-48 hours; fluorescence ex 360 nm / em 465 nm
T1 construct: purchased Calbiochem, San Diego, Calif
Description: as §1

T1 sequence (P0C6E9 25-781): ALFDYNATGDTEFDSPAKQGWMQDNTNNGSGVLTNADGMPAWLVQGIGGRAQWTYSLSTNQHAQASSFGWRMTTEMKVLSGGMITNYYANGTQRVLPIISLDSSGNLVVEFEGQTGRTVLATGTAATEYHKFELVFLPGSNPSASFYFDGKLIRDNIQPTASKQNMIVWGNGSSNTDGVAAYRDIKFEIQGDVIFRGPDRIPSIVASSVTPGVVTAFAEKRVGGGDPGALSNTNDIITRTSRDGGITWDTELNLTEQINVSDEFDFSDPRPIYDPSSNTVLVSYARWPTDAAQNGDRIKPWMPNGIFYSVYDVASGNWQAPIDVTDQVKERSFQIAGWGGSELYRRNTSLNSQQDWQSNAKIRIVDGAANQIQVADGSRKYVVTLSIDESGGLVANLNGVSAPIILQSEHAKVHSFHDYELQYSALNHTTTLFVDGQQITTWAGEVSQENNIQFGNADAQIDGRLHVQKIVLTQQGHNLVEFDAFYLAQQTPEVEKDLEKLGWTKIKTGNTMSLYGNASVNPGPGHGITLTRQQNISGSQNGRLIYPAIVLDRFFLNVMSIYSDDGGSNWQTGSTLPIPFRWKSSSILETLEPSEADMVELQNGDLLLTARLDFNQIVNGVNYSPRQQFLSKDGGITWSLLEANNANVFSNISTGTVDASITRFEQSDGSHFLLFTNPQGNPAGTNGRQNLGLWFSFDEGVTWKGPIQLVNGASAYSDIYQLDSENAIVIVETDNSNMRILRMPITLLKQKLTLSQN

SMILES | inhibition of biofilm production by PAO1 (PAO1 biofilm formation) | inhibition of neuraminidase activity (PAO1 N'ase) [1] | inhibition of neuraminidase activity (V. cholera N'ase) (V. cholera neuraminidase)
CCC(CC)[C@H](NC(C)=O)[C@@H]1[C@H](O)[C@@H](C(=O)O)C[C@H]1N=C(N)N [peramivir] | dose dependent inhibition of biofilm production | inhibited | inhibited
CC(=O)N[C@H]1[C@H]([C@H](O)[C@H](O)CO)OC(C(=O)O)=C[C@@H]1N=C(N)N [zanamivir] | dose dependent inhibition of biofilm production | – | –
CCOC(=O)C1=C[C@@H](OC(CC)CC)[C@H](NC(C)=O)[C@@H](N)C1 [oseltamivir] | dose dependent inhibition of biofilm production | – | –
